Assays:
[1] = Stability in human plasma; assay type: in vitro ADME
Procedure: (§1) The in vitro metabolism and stability of separated diastereomers were determined in PLCE, MT-2 extract and human plasma. A biological sample listed below, 80 μL, was transferred into a screw-capped centrifuge tube and incubated at 37° C. for 5 min. A solution containing 0.2 mg/mL of the test compound in a suitable buffer, 20 μL, was added to the biological sample and mixed. The reaction mixture, 20 μL, was immediately sampled and mixed with 60 μL of methanol containing 0.015 mg/mL of 2-hydroxymethylnaphthalene as an internal standard for HPLC analysis. The sample was taken as the time-zero sample. Then, at specific time points, the reaction mixture, 20 μL, was sampled and mixed with 60 μL of methanol containing the internal standard. The mixture thus obtained was centrifuged at 15,000 G for 5 min and the supernatant was analyzed with HPLC under the conditions described below.
(3) Human plasma (pooled normal human plasma from George King Biomedical Systems, Inc.)
In the study for human plasma, the test compound was dissolved in TBS. TBS (tris-buffered saline, Sigma) contains 0.05 M Tris, 0.0027 M potassium chloride, and 0.138 M sodium chloride. pH 7.5 at 37° C.
(§2) The HPLC analysis was carried out under the following conditions.

[2] = Stability / hydrolysis in MT-2 cell extract; assay type: in vitro ADME
Procedure: as §1
(2) MT-2 cell extract was prepared from MT-2 cells according to the published procedure [A. Pompon, I. Lefebvre, J.-L. Imbach, S. Kahn, and D. Farquhar, “Antiviral Chemistry & Chemotherapy”, 5:91-98 (1994)] except for using HEPES buffer described below as the medium.
In the study for MT-2 cell extracts, the test compound was dissolved in HEPES buffer. HEPES buffer contains 0.010 M HEPES, 0.05 M potassium chloride, 0.005 M magnesium chloride, and 0.005 M dl-dithiothreitol. pH 7.4 at 37° C.
as §2

[3] = test system: PLCE (porcine liver carboxyesterase); assay: in vitro; assay type: in vitro ADME
Procedure: as §1
(1) PLCE (porcine liver carboxyesterase from Sigma, 160 u/mg protein, 21 mg protein/mL) diluted 20 fold with PBS (phosphated-buffered saline).
In the study for PLCE, the test compound was dissolved in PBS. PBS (phosphate-buffered saline, Sigma) contains 0.01 M phosphate, 0.0027 M potassium chloride, and 0.137 M sodium chloride. pH 7.4 at 37° C.
as §2

[4] = Incubation of radiolabeled PMPA prodrugs or PMPA in human whole blood; metabolites in plasma, PBMCs and RBCs; assay type: in vitro ADME; details: for Metabolites (% of Total Peak Area): PMPA: human blood, 1 h
Procedure: After 1 hour, plasma, red blood cells (RBCs) and peripheral blood mononuclear cells (PBMCs) were isolated and analyzed by HPLC with radiometric detection.

[5] = Excretion and tissue distribution of radiolabelled prodrug in dogs; details: for % Dose / Conc.: dogs, oral 10 mg-eq. PMPA/kg
Procedure: Plasma and peripheral blood mononuclear cells (PBMCs) were obtained over the 24-hr period. Urine and feces were cage collected over 24 hr. At 24 h after the dose, the animals were sacrificed and tissues removed for analysis. Total radioactivity in tissues was determined by oxidation and liquid scintillation counting.

For `CC(C)OC(=O)OCOP(=O)(CO[C@H](C)Cn1cnc2c(N)ncnc21)OCOC(=O)OC(C)C.O=C(O)/C=C/C(=O)O` [TDF, tenofovir disoproxil fumarate, reference compound], the “Human Plasma Stability (HP) product” value ([1]; 37° C., TBS pH 7.5) was “monoPOC PMPA”, the “Stability T 1/2 Human Plasma” value ([1]; human, plasma) was 0.41 min and the “Human Plasma Stability (HP) t1/2” value ([1]; human, plasma, pH 7.5) was 0.41. The “Stability T 1/2 MT-2 Cell Extract” value [2] was 70.7 min, the “MT-2 extract hydrolysis product” value ([2]; 37° C., HEPES buffer pH 7.4) was “monoPOC PMPA” and the “MT-2 extract hydrolysis rate t1/2” value ([2]; pH 7.4) was 70.7 min. For the same molecule, the PLCE hydrolysis product ([3]; 37° C., PBS pH 7.4) was “MonoPOC PMPA”, the “PLCE hydrolysis rate t1/2” value ([3]; pH 7.4) was under 0.14 min and the “Metabolites (% of Total Peak Area): PMPApp” value [4] was 18%. The “Metabolites (% of Total Peak Area): PMPA” value ([4]; PBMC) was 50%, the “Metabolites (% of Total Peak Area): PMPA” value ([4]; Plasma/FP) was 11% and the “Metabolites (% of Total Peak Area): PMPA” value ([4]; RBC/FP) was 93%. For the same molecule, the “% Dose” value ([5]; Abdominal fat, 24 h) was 0.00%, the Conc. ([5]; Abdominal fat, 24 h) was 0.16 ug-eq/g and the “% Dose” value ([5]; Adrenal Gland, 24 h) was 0.00%. The Conc. ([5]; Adrenal Gland, 24 h) was 1.90 ug-eq/g, the “% Dose” value ([5]; Axillary Lymph Nodes, 24 h) was 0.00% and the Conc. ([5]; Axillary Lymph Nodes, 24 h) was 0.37 ug-eq/g. The “% Dose” value ([5]; Bile, 24 h) was 0.00%, the Conc. ([5]; Bile, 24 h) was 9.63 ug-eq/g and the “% Dose” value ([5]; Bone Marrow, 24 h) was 0.00%. The Conc. ([5]; Bone Marrow, 24 h) was 0.20 ug-eq/g, the “% Dose” value ([5]; Brain, 24 h) was 0.00% and the Conc. ([5]; Brain, 24 h) was “<LOD”. The “% Dose” value ([5]; Cerebrospinal Fluid, 24 h) was 0.00%, the Conc. ([5]; Cerebrospinal Fluid, 24 h) was “<LOD” and the “% Dose” value ([5]; Duodenum, 24 h) was 0.49%. For the same molecule, the Conc. ([5]; Duodenum, 24 h) was 4.96 ug-eq/g, the “% Dose” value ([5]; Eye (L + R), 24 h) was 0.00% and the Conc. ([5]; Eye (L + R), 24 h) was 0.06 ug-eq/g. The “% Dose” value ([5]; Feces, collected over 24 hr) was 40.96%, the “% Dose” value ([5]; Femoral Bone, 24 h) was 0.00% and the Conc. ([5]; Femoral Bone, 24 h) was 0.08 ug-eq/g. For the same molecule, the “% Dose” value ([5]; Gall bladder, 24 h) was 0.00%, the Conc. ([5]; Gall bladder, 24 h) was 3.58 ug-eq/g and the “% Dose” value ([5]; Heart, 24 h) was 0.03%. For the same molecule, the Conc. ([5]; Heart, 24 h) was 0.46 ug-eq/g, the “% Dose” value ([5]; Ileum, 24 h) was 0.01% and the Conc. ([5]; Ileum, 24 h) was 0.50 ug-eq/g. For the same molecule, the “% Dose” value ([5]; Iliac Lymph Nodes, 24 h) was 0.00%, the Conc. ([5]; Iliac Lymph Nodes, 24 h) was 0.51 ug-eq/g and the “% Dose” value ([5]; Inguinal Lymph Nodes, 24 h) was 0.00%. For the same molecule, the Conc. ([5]; Inguinal Lymph Nodes, 24 h) was 0.28 ug-eq/g, the “% Dose” value ([5]; Jejunum, 24 h) was 1.34% and the Conc. ([5]; Jejunum, 24 h) was 3.01 ug-eq/g. For the same molecule, the “% Dose” value ([5]; Kidney, 24 h) was 4.58%, the Conc. ([5]; Kidney, 24 h) was 87.90 ug-eq/g and the “% Dose” value ([5]; Large Intestine, 24 h) was 1.63%. For the same molecule, the Conc. ([5]; Large Intestine, 24 h) was 5.97 ug-eq/g, the “% Dose” value ([5]; Liver, 24 h) was 12.40% and the Conc. ([5]; Liver, 24 h) was 38.30 ug-eq/g. For the same molecule, the “% Dose” value ([5]; Lungs, 24 h) was 0.03%, the Conc. ([5]; Lungs, 24 h) was 0.53 ug-eq/g and the “% Dose” value ([5]; Mesenteric Lymph Nodes, 24 h) was 0.00%. The Conc. ([5]; Mesenteric Lymph Nodes, 24 h) was 1.20 ug-eq/g, the “% Dose” value ([5]; PBMC) was 0.00% and the “% Dose” value ([5]; Pancreas, 24 h) was 0.00%. For the same molecule, the Conc. ([5]; Pancreas, 24 h) was 0.57 ug-eq/g, the “% Dose” value ([5]; Pituitary Gland, 24 h) was 0.00% and the Conc. ([5]; Pituitary Gland, 24 h) was 0.23 ug-eq/g. For the same molecule, the Conc. ([5]; Plasma at 0.25 h) was 3.68 ug-eq/g, the “% Dose” value ([5]; Plasma at 24 h) was 0.00% and the Conc. ([5]; Plasma at 24 h) was 0.20 ug-eq/g. The “% Dose” value ([5]; Prostate, 24 h) was 0.00%, the Conc. ([5]; Prostate, 24 h) was 0.23 ug-eq/g and the “% Dose” value ([5]; Salivary Gland (L + R), 24 h) was 0.00%. For the same molecule, the Conc. ([5]; Salivary Gland (L + R), 24 h) was 0.45 ug-eq/g, the “% Dose” value ([5]; Skeletal Muscle, 24 h) was 0.00% and the Conc. ([5]; Skeletal Muscle, 24 h) was 0.11 ug-eq/g. For the same molecule, the “% Dose” value ([5]; Skin, 24 h) was 0.00%, the Conc. ([5]; Skin, 24 h) was 0.13 ug-eq/g and the “% Dose” value ([5]; Spinal Cord, 24 h) was 0.00%. The Conc. ([5]; Spinal Cord, 24 h) was “<LOD”, the “% Dose” value ([5]; Spleen, 24 h) was 0.00% and the Conc. ([5]; Spleen, 24 h) was 0.63 ug-eq/g. For the same molecule, the “% Dose” value ([5]; Stomach, 24 h) was 0.11%, the Conc. ([5]; Stomach, 24 h) was 1.92 ug-eq/g and the “% Dose” value ([5]; Testes (L + R), 24 h) was 0.02%. For the same molecule, the Conc. ([5]; Testes (L + R), 24 h) was 1.95 ug-eq/g, the “% Dose” value ([5]; Thyroid Gland, 24 h) was 0.00% and the Conc. ([5]; Thyroid Gland, 24 h) was 0.30 ug-eq/g. The “% Dose” value ([5]; Total GI Tract Contents, 24 h) was 5.61%, the “% Dose” value ([5]; Total Recovery, 24 h) was 81.10% and the “% Dose” value ([5]; Urine, collected over 24 hr) was 23.72%. The “% Dose” value ([5]; Whole Blood, 24 h) was 0.00%, the Conc. ([5]; Whole Blood, 24 h) was 0.85 ug-eq/g and the “main species observed in plasma” value ([5]; dog, in vivo, po) was “the parent drug”. For the same molecule, the “prodrug concentration in the plasma” value ([5]; dog, in vivo, po) was “below the level of assay detection” and the CC50 (MT-2 cells) was 70 µM.
